# Results: patent US9352030B2, “Mycobacterium antigenic composition” (priority 2010, dated 2016)
# B1: Mtb72f: fusion protein antigen, Mtb72f with 6 his residues, SEQ ID No: 11 (protein)
# chain: MHHHHHHTAASDNFQLSQGGQGFAIPIGQAMAIAGQIRSGGGSPTVHIGPTAFLGLGVVDNNGNGARVQRVVGSAPAASLGISTGDVITAVDGAPINSATAMADALNGHHPGDVISVTWQTKSGGTRTGNVTLAEGPPAEFMVDFGALPPEINSARMYAGPGSASLVAAAQMWDSVASDLFSAASAFQSVVWGLTVGSWIGSSAGLMVAAASPYVAWMSVTAGQAELTAAQVRVAAAAYETAYGLTVPPPVIAENRAELMILIATNLLGQNTPAIAVNEAEYGEMWAQDAAAMFGYAAATATATATLLPFEEAPEMTSAGGLLEQAAAVEEASDTAAANQLMNNVPQALQQLAQPTQGTTPSSKLGGLWKTVSPHRSPISNMVSMANNHMSMTNSGVSMTNTLSSMLKGFAPAAAAQAVQTAAQNGVRAMSSLGSSLGSSGLGGGVAANLGRAASVGSLSVPQAWAAANQAVTPAARALPLTSLTSAAERGPGQMLGGLPVGQMGARAGGGLSGVLRVPPRPYVMPHSPAAGDIAPPALSQDRFADFPALPLDPSAMVAQVGPQVVNINTKLGYNNAVGAGTGIVIDPNGVVLTNNHVIAGATDINAFSVGSGQTYGVDVVGYDRTQDVAVLQLRGAGGLPSAAIGGGVAVGEPVVAMGNSGGQGGTPRAVPGRVVALGQTVQASDSLTGAEETLNGLIQFDAAIQPGDSGGPVVNGLGQVVGMNTAAS
# modifications: Mtb72f fusion with 6 additional his residues
# B2: M72: fusion protein antigen comprising Rv1196, M72 with two N-terminal His residues, SEQ ID No: 7 (protein)
# chain: MHHTAASDNFQLSQGGQGFAIPIGQAMAIAGQIRSGGGSPTVHIGPTAFLGLGVVDNNGNGARVQRVVGSAPAASLGISTGDVITAVDGAPINSATAMADALNGHHPGDVISVTWQTKSGGTRTGNVTLAEGPPAEFMVDFGALPPEINSARMYAGPGSASLVAAAQMWDSVASDLFSAASAFQSVVWGLTVGSWIGSSAGLMVAAASPYVAWMSVTAGQAELTAAQVRVAAAAYETAYGLTVPPPVIAENRAELMILIATNLLGQNTPAIAVNEAEYGEMWAQDAAAMFGYAAATATATATLLPFEEAPEMTSAGGLLEQAAAVEEASDTAAANQLMNNVPQALQQLAQPTQGTTPSSKLGGLWKTVSPHRSPISNMVSMANNHMSMTNSGVSMTNTLSSMLKGFAPAAAAQAVQTAAQNGVRAMSSLGSSLGSSGLGGGVAANLGRAASVGSLSVPQAWAAANQAVTPAARALPLTSLTSAAERGPGQMLGGLPVGQMGARAGGGLSGVLRVPPRPYVMPHSPAAGDIAPPALSQDRFADFPALPLDPSAMVAQVGPQVVNINTKLGYNNAVGAGTGIVIDPNGVVLTNNHVIAGATDINAFSVGSGQTYGVDVVGYDRTQDVAVLQLRGAGGLPSAAIGGGVAVGEPVVAMGNSGGQGGTPRAVPGRVVALGQTVQASDSLTGAEETLNGLIQFDAAIQPGDAGGPVVNGLGQVVGMNTAAS
# modifications: M72 fusion with 2 additional his residues
# B3: Rv1196: Rv1196 protein (SEQ ID No: 1) from Mycobacterium tuberculosis H37Rv, obtained from Corixa Corporation (protein)
# chain: MVDFGALPPEINSARMYAGPGSASLVAAAQMWDSVASDLFSAASAFQSVVWGLTVGSWIGSSAGLMVAAASPYVAWMSVTAGQAELTAAQVRVAAAAYETAYGLTVPPPVIAENRAELMILIATNLLGQNTPAIAVNEAEYGEMWAQDAAAMFGYAAATATATATLLPFEEAPEMTSAGGLLEQAAAVEEASDTAAANQLMNNVPQALQQLAQPTQGTTPSSKLGGLWKTVSPHRSPISNMVSMANNHMSMTNSGVSMTNTLSSMLKGFAPAAAAQAVQTAAQNGVRAMSSLGSSLGSSGLGGGVAANLGRAASVGSLSVPQAWAAANQAVTPAARALPLTSLTSAAERGPGQMLGGLPVGQMGARAGGGLSGVLRVPPRPYVMPHSPAAG
# modifications: Mycobacterium tuberculosis H37Rv
# Assays:
# [1] = Conductivity determination (Malvern Zetasizer Nano); assay type: physicochemical
# Method: A range of standards having sodium chloride concentrations of 0, 75, 100, 150, 250 and 300 mM were prepared from a stock solution of 1500 mM sodium chloride by dilution in water for injection.
# Immunogenic compositions were prepared using M72 with two N-terminal His residues according to the procedures provided in Example 9. To investigate the contribution from the antigen itself and any residual materials in the purified bulk, placebo lyophilisation cakes were also prepared by excluding the antigen component.
# Using a Malvern Zetasizer Nano and 1.5 ml of each sample in folded capillary cells, a voltage of 30 to 150 V (determined automatically by the instrument) was applied and the conductivity determined.
# [2] = test system: chicken Red Blood cells (RBC); test: QS21 lytic activity haemolysis assay (limit test); assay type: cell-based; conditions: RBC 30 min RT, OD at 540 nm
# Method: QS21 lytic activity was measured by a haemolysis assay using chicken Red Blood cells (RBC). RBC were centrifuged at 550 g at 4° C. Supernatant was discarded. The pellet was carefully resuspended in PBS buffer to reach the initial volume and the same operation was repeated until supernatant was no longer red (generally 3 times). The pellet was stored at 4° C. for 3 to 4 days maximum if not used directly (and washed again the day it is used) or was diluted around 10 times in buffer if used the same day.
# A QS21 dose range curve was prepared in ASA buffer (in salt or in sorbitol buffer following the ASA sample tested) extemporaneously and the adjuvant samples (containing a 50 ug or 90 ug equivalent of QS21 meaning the equivalent of 500 ul or 900 ul ASA) were prepared. Final volume was adjusted to 900 ul in standards and samples with adequate buffer (containing or not sorbitol as a function of the buffer of the sample tested). Due to its opalescence, ASA interferes with optical density (OD). ASA “blanks” were thus prepared and their OD was subtracted from the OD of ASA tested samples. Those blanks corresponded to the same ASA volume as the volume tested in samples, but adjusted to 1 ml with buffer. No RBC were added to these blanks. Standards and samples were then incubated with RBC (100 ul of diluted RBC added to 900 ul of standards and samples) for 30 minutes at room temperature (RT). Samples were then centrifuged 5 minutes at 900 g. Optical density at 540 nm was measured after centrifugation.
# Determination of lytic activity was carried out by a limit test.
# 1. Limit of detection (LOD) was defined as the lowest concentration of QS21 leading to an OD: • Higher than the base level (OD>0.1) • Around three times higher than OD's buffer (the “0 ug” QS21) • In the ascendant part of the curve • Determined for each test.
# 2. QS21 lytic activity was held to be positive in the adjuvant samples if the OD for the adjuvant sample was greater than the ODLOD).
# [3] = assay type: physicochemical; conditions: 100 ug/ml; pH 6.1, 7.5, 8.5; 0, 150, 450 mM NaCl; 24 hours at 4° C. or 25° C.
# [4] = assay type: physicochemical; conditions: 100 ug/ml; pH 6.1, 7.5, 8.5; 0, 150, 450 mM NaCl; 24 hours at 4° C. or 25° C.; remark: listed apart in the source
# [5] = assay type: physicochemical; conditions: pH 7.5 or 8.5; sodium chloride 150 mM or greater
# [6] = test system: M72-specific rabbit polyclonal antibody and M72(Mtb39)-specific mouse monoclonal antibody; test: M72 antigenicity sandwich ELISA, varied pH and NaCl (Example 10); assay type: binding; conditions: pH 7.5 or 8.5; sodium chloride 150 mM or greater
# [7] = DLS of Rv1196 compositions with varied pH and NaCl after storage; assay type: physicochemical; conditions: 100 ug/ml; pH 8.5
# [8] = Nephlometry of Rv1196 compositions with varied pH and NaCl after storage; assay type: physicochemical; conditions: 100 ug/ml; pH 6.1, 7.5, 8.5; 0, 150, 450 mM NaCl; 24 hours at 4° C. or 25° C.
# Method: Rv1196 protein (SEQ ID No: 1) was obtained from Corixa Corporation and was diluted to a concentration of 100 ug/ml in three different buffers (10 mM phosphate buffer at pH 6.1, 20 mM Tris buffer at pH 7.5 and 20 mM Tris buffer at pH 8.5) containing final sodium chloride concentrations of 0, 150 and 450 mM.
# Samples were stored for 24 hours at 4° C. or 25° C. before analysis.
# Nephlometry was performed using a Nepheloskan® Ascent, available from Thermo Fischer Scientific. Analysis was performed in UV transparent Costar® micro-plates available from Corning Inc (USA).
molecule,measurement,setting,value
[Cl-].[Na+] [sodium chloride],Conductivity,[1]; 75 mM sodium chloride standard in water for injection,8.2 mS/cm
same,Conductivity,[1]; 300 mM sodium chloride standard in water for injection,30.0 mS/cm
QS21,OD,[2]; 0.5 ug QS21 standard,0.052
same,OD,[2]; 0.6 ug QS21 standard,0.073
same,OD,[2]; 0.7 ug QS21 standard,0.091
same,OD,[2]; 0.8 ug QS21 standard,0.096
same,OD,[2]; 0.9 ug QS21 standard,0.12
B1,nephlometry trend with salt concentration and pH,[3],sensitive to salt concentration and pH
same,DLS size trend with salt concentration and pH,[4],sensitive to salt concentration and pH
B2,change in antigen size,[5],clear increase in antigen size
same,change in antigenicity,[6],reduction in antigenicity
B3,particle size by DLS,[7],concentration of sodium chloride impacts the measured particle size
same,clarity by nephlometry with increasing salt concentration,[8],sensitive to salt concentration
